Source: PubChem BioAssay (NCI)
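1) Cells in 96-well plates. 2) Compound, 48 h, 5 concentrations. 3) Linear interpolation between surrounding doses. 4) Unreached endpoint = highest concentration. GI50 = concentration required for 50% inhibition of growth. TGI is the concentration that stops growth completely.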

What was measured:
Assay in all cases: NCI-60 cell line screen, 48 h
UO-31 renal = test system: UO-31 renal
KM12 colon = test system: KM12 colon
NCI-H460 lung = test system: NCI-H460 lung
K-562 leukemia = test system: K-562 leukemia
SK-OV-3 ovarian = test system: SK-OV-3 ovarian
SF-295 CNS = test system: SF-295 CNS
A498 renal = test system: A498 renal
CAKI-1 renal = test system: CAKI-1 renal
NCI-H23 lung = test system: NCI-H23 lung
TK-10 renal = test system: TK-10 renal
A549 NSCLC = test system: A549 NSCLC

Row | SMILES | GI50 (UO-31 renal) [nM] | TGI (UO-31 renal) [µM] | GI50 (KM12 colon) [nM] | TGI (KM12 colon) [µM] | GI50 (NCI-H460 lung) [nM] | TGI (NCI-H460 lung) [µM] | GI50 (K-562 leukemia) [nM] | TGI (K-562 leukemia) [µM] | GI50 (SK-OV-3 ovarian) [nM] | TGI (SK-OV-3 ovarian) [µM] | GI50 (SF-295 CNS) [nM] | TGI (SF-295 CNS) [µM] | GI50 (A498 renal) [nM] | TGI (A498 renal) [µM] | GI50 (CAKI-1 renal) [nM] | TGI (CAKI-1 renal) [µM] | GI50 (NCI-H23 lung) [nM] | TGI (NCI-H23 lung) [µM] | TGI (TK-10 renal) [µM] | TGI (A549 NSCLC) [µM]
1 | Cc1ccc(C2CC(c3cccc(Nc4ccncc4)c3)=NN2c2ccccc2)cc1 (stereo not drawn) | 1410 | 2.74 | 1750 | 3.25 | 1800 | 3.33 | 2110 | 6.62 | 2340 | 5.88 | 1760 | 3.17 | 1860 | 5.63 | 1610 | 3.02 | 1530 | 2.97 |  | 
2 | O=c1nc2sc3ccc4ccccc4c3n2[nH]c1=O |  |  |  | > 100 |  | > 100 |  | > 100 |  | > 100 |  | > 100 |  |  |  |  |  | > 100 | > 100 | > 100
3 | COc1cc2c(c(OC(C)=O)c1OC(C)=O)-c1ccc(SC)c(=O)cc1C(NC(C)=O)CC2 (stereo not drawn) |  | > 100 |  | 12 |  | 20 |  | 36.3 |  | > 36 |  | 10.1 |  | 56.7 |  | > 100 |  | 31.4 | > 100 | > 100
4 | CCOC(=O)NC(Nc1ccc(Cl)cn1)(C(F)(F)F)C(F)(F)F |  | > 100 |  | > 100 |  | > 100 |  | > 100 |  | > 100 |  |  |  | > 100 |  |  |  | > 100 | > 100 | 
5 | CC1=CC(C)(C)Nc2ccc(CSc3ccccc3)cc21 |  | 50.8 |  | 63.5 |  | 67.4 |  | > 100 |  | 90.1 |  | 48.2 |  | 74.4 |  | > 100 |  | > 100 | > 100 | 51.4
6 | N#CCCN(CCC#N)c1ccc(/C=C2\N=C(c3cc([N+](=O)[O-])ccc3Cl)N(NC(=O)CC(=O)Nc3ccccc3Cl)C2=O)cc1 |  | > 100 |  | > 100 |  |  |  | > 100 |  | > 100 |  | > 100 |  |  |  | > 100 |  | > 100 | > 100 | > 100
7 | CC(C)CN(CC#N)CC(C)C |  | > 100 |  | > 100 |  | > 100 |  | > 100 |  | > 100 |  | > 100 |  | > 100 |  | > 100 |  | > 100 | > 100 | > 100
8 | CCCCCCCCCCCCCCCC(=O)OC1C(O)C(CO)OC(OC)C1NC(=O)N(CCCl)N=O (stereo not drawn) |  | 28.5 |  | 35.1 |  | 17.6 |  | 66.1 |  |  |  | 24 |  |  |  | > 100 |  | 21 | 28.9 | 23.8
9 | [O-][n+]1c(-c2ccccc2)c2nc3ccccc3nc2c2ccccc21 |  | > 100 |  | > 100 |  | > 100 |  | > 100 |  | > 100 |  | > 100 |  | > 100 |  | > 100 |  | > 100 | > 100 | > 100
10 | O=[As](O)(O)c1ccc2nc3cc([As](=O)(O)O)ccc3nc2c1 |  | > 100 |  | > 100 |  | > 100 |  | > 100 |  |  |  | > 100 |  | > 100 |  | > 100 |  | > 100 | > 100 | > 100
11 | C[C@]12CC[C@@H]3c4ccc(OCCN5CCCC5)cc4CC[C@H]3[C@@H]1CCC2=O |  | 61.9 |  |  |  | 53.9 |  | > 100 |  | > 100 |  | 43.2 |  | > 100 |  | 81.5 |  | > 100 | > 100 | > 100
12 | CC(=O)N/C(=C\c1ccc(/C=C(\NC(C)=O)C2=NC3C(=O)c4ccccc4C(=O)C3N2)cc1)C1=NC2C(=O)c3ccccc3C(=O)C2N1 (stereo not drawn) |  | 74.1 |  | > 100 |  | > 100 |  | > 100 |  | > 100 |  | > 100 |  | > 100 |  | > 100 |  | > 100 | 69.3 | 
13 | CCN(CC)CCNc1ccc2nnn3c4ccccc4c(=O)c1c23 |  | 29.3 |  | 17.3 |  | 6.27 |  | 14.8 |  | 62.5 |  | 15.3 |  | 24.2 |  | > 33.7 |  | 19.7 | 22.9 | 13.2
14 | C[N+](C)([O-])Cc1cc(-c2ccccc2)ccc1O |  | > 100 |  | > 100 |  | > 100 |  | > 100 |  |  |  | > 100 |  | > 100 |  | > 100 |  | > 100 | > 100 | > 100
15 | CCCOC1OC(CS(=O)(=O)O)C(O)C(O)C1O (stereo not drawn) |  | > 100 |  | > 100 |  | > 100 |  | > 100 |  | > 100 |  | > 100 |  | > 100 |  | > 100 |  | > 100 | > 100 | 
16 | NC(N)=NC(N)=Nc1ccccc1 (tested in a mixture with another compound) |  | > 100 |  | > 100 |  | > 100 |  | > 100 |  | > 100 |  | > 100 |  | > 100 |  | > 100 |  | > 100 | > 100 | > 100
